# Test results: patent US12421280B2, “Insulin like growth factor binding protein bioactive peptide fragments” (Northwestern University, priority 2019, dated 2025)
# Where “and” joins values, the source holds several entries; their conditions need not be identical. Equal values may be shown once.
# Legend:
# Format in all cases: in vivo, rat
# male SD rats = experiment: Porsolt forced swim test; conditions: 1 hr post-dosing; for antidepressant-like effect in the Porsolt test (floating time), compared with IGFBP2: dose not specified, FIG. 2 legend; for antidepressant-like effect in the Porsolt test as measured by floating time, compared with IGFBP2: FIG. 2; for antidepressant-like effect in the Porsolt test as measured by floating time, compared with ketamine: 1 μg/kg i.v., FIG. 1A
# Protocol: Adult male (2-3 month old) Sprague-Dawley (SD) rats were purchased from Harlan (USA) for the Porsolt Forced Swim Test. Rats were housed in Lucite cages with aspen wood chip bedding, maintained on a 12:12 light:dark cycle (lights on at 5 AM), and given ad libitum access to Purina lab chow (USA) and tap water throughout the study. All experiments were approved by the Sai Life Sciences (India) Animal Care and Use Committees.
# Porsolt forced swim testing was conducted as described in (Burgdorf et al., Neuropsychopharmacology, (2013), 38(5):729-742). Rats were dosed with IGFBP1-7 (1 microgram/kg i.v.; peprotech, USA) (3 mg/kg, i.v.), ketamine ([…] i.v.; Sigma, USA) or 0.9% sterile saline vehicle (1 ml/kg, i.v.). Injections were made in the lateral tail vein and rats were tested 1 hr post-dosing. Animals were placed in a 46 cm tall×20 cm in diameter clear glass tube filled to 30 cm with tap water (23±1° C.) for 15 min on the first day (habituation) and 5 min on the subsequent test day. Water was changed after every other animal. Animals were videotaped, and tapes were scored offline by a blind experimenter with high inter-rater reliability (Pearson's r>0.9). Floating time (sec) was defined as the minimal amount of effort required to keep the animal's head above and diving (number of incidences) was registered when the whole body of the animal was submersed and the animal's head was facing towards the bottom of the tank.
# Based on the results of the Porsolt test in Example 1, IGFBP2, IGFBP3, and IGFBP5 were identified as the best binding proteins for inducing robust antidepressant-like effects without side effects. Given the structural similarities between all 7 IGFBPs, an amino acid sequence homology was performed to identify sequences that were homologues between IGFBP2, IGFBP3, and IGFBP5 and were not consistently shared with IGFBP1, IGFBP6 and IGFBP7. Based on this analysis, three peptides were identified (KHGLYNLKQCKMSLNGQ (SEQ ID NO: 1); PKKLRP (SEQ ID NO: 2); RGD). These peptides were synthesized using standard solid phase peptide chemistry and were assessed in the Porsolt Test as described above.
# rats [1] = experiment: Positive emotional learning: hedonic 50-kHz ultrasonic vocalizations during heterospecific play, with center crosses in the same assay; conditions: 0.01, 0.1, 1, 10, and 30 mg/kg vs. vehicle, P<0.05
# Protocol: (§1) These experiments were conducted as described in Burgdorf et al. (Int. J. Neuropsychopharmacol., 2017, 20:476-484).
# rats [2] = experiment: Contextual fear extinction (model of PTSD); conditions: 1 mg/kg IV one hour before the first extinction session
# Protocol: as §1
# [3] = Table 1 raw data, one value per rat, ketamine 10 mg/kg i.v., 5 min test session
molecule,measurement,setting,value
"CNC1(c2ccccc2Cl)CCCCC1=O (stereo not drawn) [ket, ketamine, reference compound]",diving (number of incidences),male SD rats; [3],0 (6×) and 1
same,floating (floating time),male SD rats; [3],30.5 s and 55 s and 79.5 s and 31.2 s and 59.3 s and 78.1 s and 39.6 s
KHGLYNLKQCKMSLNGQ [made by solid phase peptide chemistry],"antidepressant-like effect in the Porsolt test (floating time), compared with IGFBP2",male SD rats,equivalent antidepressant-like effect as IGFBP2
same,floating (floating time),"male SD rats; Table 2 raw data, one value per rat, dose 54 (low dose, unit not given), listed as KH . . .",29.2 s and 26.5 s and 25.2 s and 24.2 s and 43.3 s and 33.4 s and 53.8 s and 27.4 s
same,floating (floating time),"male SD rats; Table 2 raw data, one value per rat, dose 540 (high dose, unit not given), listed as KH . . .",108.7 s and 94.8 s and 121.4 s and 149.1 s and 101.5 s and 105.8 s and 130 s and 147.9 s
same,"antidepressant-like effect in the Porsolt test as measured by floating time, compared with IGFBP2",male SD rats; low dose,equivalent or superior antidepressant-like effect
RGD,floating (floating time),"male SD rats; Table 2 raw data, one value per rat, dose 9 (unit not given)",115.4 s and 132.9 s and 113.1 s and 125.8 s and 108.2 s and 140.6 s and 139.7 s and 127.8 s
same,floating (floating time),"male SD rats; Table 2 raw data, one value per rat, dose 90 (unit not given)",137 s and 169 s and 132.7 s and 133.6 s and 81.6 s and 143.4 s and 149.6 s and 123.7 s
PKKLRP [made by solid phase peptide chemistry],center crosses (index of an anxiolytic drug effect),rats [1]; FIG. 3B,increased
same,positive emotional learning (rates of hedonic ultrasonic vocalizations during heterospecific play),"rats [1]; 1 hr post dosing, FIG. 3A",increased positive emotional learning
same,"antidepressant-like effect in the Porsolt test (floating time), compared with IGFBP2",male SD rats,equivalent antidepressant-like effect as IGFBP2
same,floating (floating time),"male SD rats; Table 2 raw data, one value per rat, dose 20 (low dose, unit not given), listed as PK . . .",16.6 s and 6.6 s and 10.2 s and 26.2 s and 18.2 s and 15.5 s and 22.4 s and 7.6 s
same,floating (floating time),"male SD rats; Table 2 raw data, one value per rat, dose 200 (high dose, unit not given), listed as PK . . .",17.3 s and 4.3 s and 47.8 s and 9 s and 18.4 s and 45.6 s and 2.3 s and 7.7 s
same,"antidepressant-like effect in the Porsolt test as measured by floating time, compared with IGFBP2",male SD rats; high dose,equivalent or superior antidepressant-like effect
same,"antidepressant-like effect in the Porsolt test as measured by floating time, compared with IGFBP2",male SD rats; low dose,equivalent or superior antidepressant-like effect
same,spontaneous recovery (difference in freezing 14 days post dosing versus extinction session 6),rats [2]; FIG. 3D,increased
same,contextual fear extinction across each test day,"rats [2]; sessions 1-6 drug vs. vehicle, P<0.05, FIG. 3C",increased contextual fear extinction
"IGFBP3: insulin-like growth factor binding protein 3 (peprotech, USA)","antidepressant-like effect in the Porsolt test as measured by floating time, compared with ketamine",male SD rats; ketamine 10 mg/kg i.v.,equivalent antidepressant-like effect as ketamine
same,floating (floating time),"male SD rats; Table 1 raw data, one value per rat, IGFBP 1 μg/kg i.v., 5 min test session, listed as BP3",29.3 s and 35.8 s and 42.8 s and 23.3 s and 84.9 s and 140.5 s and 142.3 s
"IGFBP7: insulin-like growth factor binding protein 7 (peprotech, USA)","antidepressant-like effect in the Porsolt test as measured by floating time, compared with ketamine",male SD rats; ketamine 10 mg/kg i.v.,equivalent antidepressant-like effect
same,floating (floating time),"male SD rats; Table 1 raw data, one value per rat, IGFBP 1 μg/kg i.v., 5 min test session, listed as BP7",24.5 s and 123.8 s and 52.5 s and 94.4 s and 9.8 s and 30.8 s and 60.1 s
"IGFBP5: insulin-like growth factor binding protein 5 (peprotech, USA)","antidepressant-like effect in the Porsolt test as measured by floating time, compared with ketamine",male SD rats; ketamine 10 mg/kg i.v.,equivalent antidepressant-like effect as ketamine
same,floating (floating time),"male SD rats; Table 1 raw data, one value per rat, IGFBP 1 μg/kg i.v., 5 min test session, listed as BP5",14.4 sec and 104.6 sec and 55 sec and 8.4 sec and 27.7 sec (2×) and 25.7 sec
"IGFBP1: insulin-like growth factor binding protein 1 (peprotech, USA) (protein, UniProt P08833 26-259, looked up) Insulin-like growth …: APWQCAPCSAEKLALCPPVSASCSEVTRSAGCGCCPMCALPLGAACGVATARCARGLSCRALPGEQQPLHALTRGQGACVQESDASAPHAAEAGSPESPESTEITEEELLDNFHLMAPSEEDHSILWDAISTYDGSKALHVTNIKKWKEPCRIELYRVVESLAKAQETSGEEISKFYLPNCNKNGFYHSRQCETSMDGEAGLCWCVYPWNGKRIPGSPEIRGDPNCQIYFNVQN",floating (floating time),"male SD rats; Table 1 raw data, one value per rat, IGFBP 1 μg/kg i.v., 5 min test session, listed as BP1",156.8 s and 143.4 s and 67.5 s and 179.1 s and 130.7 s and 96.8 s and 187.9 s
"IGFBP2: insulin-like growth factor binding protein 2 (peprotech, USA); positive control in Example 2 (protein, UniProt P18065 36-325, looked up) Insulin-like growth …: AEVLFRCPPCTPERLAACGPPPVAPPAAVAAVAGGARMPCAELVREPGCGCCSVCARLEGEACGVYTPRCGQGLRCYPHPGSELPLQALVMGEGTCEKRRDAEYGASPEQVADNGDDHSEGGLVENHVDSTMNMLGGGGSAGRKPLKSGMKELAVFREKVTEQHRQMGKGGKHHLGLEEPKKLRPPPARTPCQQELDQVLERISTMRLPDERGPLEHLYSLHIPNCDKHGLYNLKQCKMSLNGQRGECWCVNPNTGKLIQGAPTIRGDPECHLFYNEQQEARGVHTQRMQ","antidepressant-like effect in the Porsolt test as measured by floating time, compared with ketamine",male SD rats; ketamine 10 mg/kg i.v.,equivalent antidepressant-like effect as ketamine
same,floating (floating time),"male SD rats; Table 1 raw data, one value per rat, IGFBP 1 μg/kg i.v., 5 min test session, listed as BP2",59.8 s and 45.5 s and 41.6 s and 43.5 s and 25.7 s and 68.2 s and 83.6 s
same,floating (floating time),"male SD rats; Table 2 raw data, one value per rat, positive control IGFBP2, dose not given, listed as BP2",37.2 s and 67.1 s and 22 s and 35.6 s and 28.2 s and 65.8 s and 44.3 s and 79.1 s
"IGFBP6: insulin-like growth factor binding protein 6 (peprotech, USA) (protein, UniProt P24592 28-240, looked up) Insulin-like growth …: RCPGCGQGVQAGCPGGCVEEEDGGSPAEGCAEAEGCLRREGQECGVYTPNCAPGLQCHPPKDDEAPLRALLLGRGRCLPARAPAVAEENPKESKPQAGTARPQDVNRRDQQRNPGTSTTPSQPNSAGVQDTEMGPCRRHLDSVLQQLQTEVYRGAQTLYVPNCDHRGFYRKRQCRSSQGQRRGPCWCVDRMGKSLPGSPDGNGSSSCPTGSSG","antidepressant-like effect in the Porsolt test as measured by floating time, compared with ketamine",male SD rats; ketamine 10 mg/kg i.v.,equivalent antidepressant-like effect
same,floating (floating time),"male SD rats; Table 1 raw data, one value per rat, IGFBP 1 μg/kg i.v., 5 min test session, listed as BP6",25.6 s and 36.6 s and 10.9 s and 45 s and 27.2 s and 35.5 s and 36.3 s
"IGFBP4: insulin-like growth factor binding protein 4 (peprotech, USA) (protein, UniProt P22692 22-258, looked up) Insulin-like growth …: DEAIHCPPCSEEKLARCRPPVGCEELVREPGCGCCATCALGLGMPCGVYTPRCGSGLRCYPPRGVEKPLHTLMHGQGVCMELAEIEAIQESLQPSDKDEGDHPNNSFSPCSAHDRRCLQKHFAKIRDRSTSGGKMKVNGAPREDARPVPQGSCQSELHRALERLAASQSRTHEDLYIIPIPNCDRNGNFHPKQCHPALDGQRGKCWCVDRKTGVKLPGGLEPKGELDCHQLADSFRE",floating (floating time),"male SD rats; Table 1 raw data, one value per rat, IGFBP 1 μg/kg i.v., 5 min test session, listed as BP4",32.4 s and 137.2 s and 175.7 s and 189.5 s and 59 s and 64.7 s and 172.9 s
